{
  "source": "patent US8426447B2",
  "about": "“Spiro-tricyclic ring compounds as beta-secretase modulators and methods of use” (Amgen Inc., priority 2008, dated 2013)",
  "key": {"BACE1 [1]": {"target": "T1, BACE1 (Homo sapiens, UniProt P56817)", "T1 sequence (P56817 46-501, species assumed)": "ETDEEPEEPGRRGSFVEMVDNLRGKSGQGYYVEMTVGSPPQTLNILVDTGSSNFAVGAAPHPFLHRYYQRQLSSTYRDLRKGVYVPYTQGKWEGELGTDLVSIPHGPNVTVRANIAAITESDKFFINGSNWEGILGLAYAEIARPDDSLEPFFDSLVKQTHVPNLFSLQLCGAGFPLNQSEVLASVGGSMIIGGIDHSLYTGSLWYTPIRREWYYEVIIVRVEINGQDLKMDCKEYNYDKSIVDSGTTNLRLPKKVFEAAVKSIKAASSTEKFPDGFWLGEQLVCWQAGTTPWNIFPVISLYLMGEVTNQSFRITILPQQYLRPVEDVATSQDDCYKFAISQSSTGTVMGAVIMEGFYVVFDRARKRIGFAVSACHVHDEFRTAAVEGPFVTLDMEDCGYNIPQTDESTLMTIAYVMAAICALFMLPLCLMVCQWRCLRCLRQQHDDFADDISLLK", "assay": "In Vitro Enzymatic BACE FRET (Fluorescence Resonance Energy Transfer) Assay", "assay_type": "biochemical", "settings": "read-out: BACE1 FRET assay", "procedure,_shortened": "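Run in 0.05 M acetate pH 4.2 with 10% DMSO final and 100 uM genapol detergent below its CMC. Reaction was started with 50 nM FRET peptide substrate (fluorophore and quencher flanking the BACE cleavage site), incubated one hour, stopped with Tris to neutral pH, and fluorescence read.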"}, "BACE1 [2]": {"target": "T1, BACE1", "assay": "In Vitro BACE Cell-based Assay (HEK cell assay): Aβ40 in conditioned medium of cells stably expressing Amyloid Precursor Protein, sandwich ELISA", "settings": "read-out: HEK cell assay", "procedure,_shortened": "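APP-expressing cells were cultured 24 h in DMEM/10% FBS, then treated 24 h with compounds in 10-point dose response (top 100 μM or 10 μM; 0.1% DMSO final). Secreted Aβ40 was quantified by sandwich ELISA (pAb40 capture, biotinylated 6E10 detection, Europium TRF); IC50 from percent inhibition versus concentration.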"}, "[3]": {"settings": "in vitro BACE FRET enzyme assay, IC50 class symbols"}, "[4]": {"settings": "HEK cell-based assay, Aβ40 in conditioned medium, IC50 class symbols"}},
  "data": [
    {"smiles": "NC1=N[C@@]2(CO1)c1cc(-c3ccccc3F)ccc1Oc1ncc(N3CCOCC3)cc12", "note": "[compound 460]", "values": [
      {"measurement": "IC50", "setting": "BACE1 [1]", "value": "< 0.1", "unit": "µM"},
      {"measurement": "IC50", "setting": "BACE1 [2]; HEK cells", "value": "0.1 to 1", "unit": "µM"}
    ]},
    {"smiles": "NC1=N[C@@]2(CO1)c1cc(-c3cccnc3N3CCOCC3)ccc1Oc1cnc(Cl)cc12", "note": "[compound 337]", "values": [
      {"measurement": "IC50", "setting": "BACE1 [1]; [3]", "value": "1 to 5", "unit": "µM"},
      {"measurement": "IC50", "setting": "BACE1 [2]; [4]", "value": "> 5", "unit": "µM"}
    ]},
    {"smiles": "NC1=N[C@@]2(CO1)c1cc(Br)ccc1Oc1c(F)cccc12", "note": "[compound 558]", "values": [
      {"measurement": "IC50", "setting": "BACE1 [1]; Table IV, class symbols", "value": "1 to 5", "unit": "µM"},
      {"measurement": "IC50", "setting": "BACE1 [2]; Table IV, class symbols", "value": "> 5", "unit": "µM"}
    ]},
    {"smiles": "CC(C)(C)COc1ccc2c(c1)[C@]1(COC(N)=N1)c1cc(C(C)(C)O)ccc1O2", "note": "[compound 827]", "values": [
      {"measurement": "IC50", "setting": "BACE1 [1]; Table IV, class symbols", "value": "0.1 to 1", "unit": "µM"},
      {"measurement": "IC50", "setting": "BACE1 [2]; Table IV, class symbols", "value": "1 to 5", "unit": "µM"}
    ]},
    {"smiles": "CC1(C)CC(c2ccc3c(c2)[C@]2(COC(N)=N2)c2cc(-c4cncnc4)ccc2O3)=CCO1", "note": "[compound 688]", "values": [
      {"measurement": "IC50", "setting": "BACE1 [1]", "value": "< 0.1", "unit": "µM"},
      {"measurement": "IC50", "setting": "BACE1 [2]", "value": "< 0.1", "unit": "µM"}
    ]},
    {"smiles": "CC(C)(C)COc1ccc2c(c1)[C@]1(COC(N)=N1)c1ccccc1O2", "note": "[compound 655]", "values": [
      {"measurement": "IC50", "setting": "BACE1 [1]; Table IV, class symbols", "value": "1 to 5", "unit": "µM"},
      {"measurement": "IC50", "setting": "BACE1 [2]; Table IV, class symbols", "value": "> 5", "unit": "µM"}
    ]},
    {"smiles": "CC(C)(C)C#Cc1cnc2c(c1)[C@]1(COC(N)=N1)c1cc(-c3cncnc3)cc(F)c1O2", "note": "[compound 537]", "values": [
      {"measurement": "IC50", "setting": "BACE1 [1]; Table IV, class symbols", "value": "< 0.1", "unit": "µM"},
      {"measurement": "IC50", "setting": "BACE1 [2]; Table IV, class symbols", "value": "0.1 to 1", "unit": "µM"}
    ]},
    {"smiles": "CC(C)(C)COc1ccc2c(c1)[C@@]1(COC(N)=N1)c1cc(-c3ccc(C#N)cc3)ccc1O2", "note": "[Example 128, (R)-4-(2-amino-2′-(neopentyloxy)-5H-spiro[oxazole-4,9′-xanthene]-7′-yl)benzonitrile]", "values": [
      {"measurement": "IC50", "setting": "BACE1 [1]; Table III, IC50's in uM ranges", "value": "< 0.1", "unit": "µM"},
      {"measurement": "IC50", "setting": "BACE1 [2]; Table III, IC50's in uM ranges", "value": "0.1 to 1", "unit": "µM"}
    ]},
    {"smiles": "CC(C)(F)COc1ccc2c(c1)[C@]1(COC(N)=N1)c1cc(-c3cccnc3)cnc1O2", "note": "[compound 177]", "values": [
      {"measurement": "IC50", "setting": "BACE1 [1]; Table III, IC50's in uM ranges", "value": "< 0.1", "unit": "µM"},
      {"measurement": "IC50", "setting": "BACE1 [2]; Table III, IC50's in uM ranges", "value": "< 0.1", "unit": "µM"}
    ]},
    {"smiles": "Cc1ccc2c(c1)Oc1ccc(Br)cc1C21COC(N)=N1", "note": "(stereo not drawn) [Example 37, 2′-bromo-6′-methylspiro[1,3-oxazole-4,9′-xanthen]-2-amine]", "values": [
      {"measurement": "IC50", "setting": "BACE1 [1]; Table 1", "value": "> 5", "unit": "µM"},
      {"measurement": "IC50", "setting": "BACE1 [2]; Table 1, Aβ40, 24 h incubation", "value": "> 5", "unit": "µM"}
    ]},
    {"smiles": "NC1=N[C@@]2(CO1)c1cc(-c3cccnc3)ccc1Oc1ccc(-c3csc(C4CC4)n3)cc12", "note": "[compound 632]", "values": [
      {"measurement": "IC50", "setting": "BACE1 [1]; Table IV, class symbols", "value": "< 0.1", "unit": "µM"},
      {"measurement": "IC50", "setting": "BACE1 [2]; Table IV, class symbols", "value": "0.1 to 1", "unit": "µM"}
    ]},
    {"smiles": "CC(C)(C)COc1ccc2c(c1)[C@]1(COC(N)=N1)c1cc(C3CC3)ccc1O2", "note": "[compound 759]", "values": [
      {"measurement": "IC50", "setting": "BACE1 [1]", "value": "0.1 to 1", "unit": "µM"},
      {"measurement": "IC50", "setting": "BACE1 [2]", "value": "1 to 5", "unit": "µM"}
    ]},
    {"smiles": "NC1=N[C@@]2(CO1)c1cc(-c3cncnc3)ccc1Oc1c(F)cc(OCC3CCOCC3)cc12", "note": "[compound 417]", "values": [
      {"measurement": "IC50", "setting": "BACE1 [1]; [3]", "value": "< 0.1", "unit": "µM"},
      {"measurement": "IC50", "setting": "BACE1 [2]; [4]", "value": "< 0.1", "unit": "µM"}
    ]},
    {"smiles": "CC(C)(C)OCCOc1ccc2c(c1)[C@]1(COC(N)=N1)c1cc(-c3cncnc3)ccc1O2", "note": "[compound 158]", "values": [
      {"measurement": "IC50", "setting": "BACE1 [1]; Table III, IC50's in uM ranges", "value": "< 0.1", "unit": "µM"},
      {"measurement": "IC50", "setting": "BACE1 [2]; Table III, IC50's in uM ranges", "value": "< 0.1", "unit": "µM"}
    ]},
    {"smiles": "CC(C)(C)CCc1ccc2c(c1)[C@]1(COC(N)=N1)c1cc(-c3cccnc3)cnc1O2", "note": "[182b]", "values": [
      {"measurement": "IC50", "setting": "BACE1 [1]; Table III, IC50's in uM ranges", "value": "< 0.1", "unit": "µM"},
      {"measurement": "IC50", "setting": "BACE1 [2]; Table III, IC50's in uM ranges", "value": "0.1 to 1", "unit": "µM"}
    ]},
    {"smiles": "CC1(C#Cc2cnc3c(c2)[C@]2(COC(N)=N2)c2cc(-c4cc(F)ccc4F)ccc2O3)COC1", "note": "[compound 519]", "values": [
      {"measurement": "IC50", "setting": "BACE1 [1]", "value": "< 0.1", "unit": "µM"},
      {"measurement": "IC50", "setting": "BACE1 [2]; HEK cells", "value": "< 0.1", "unit": "µM"}
    ]},
    {"smiles": "CCC1(CC)CN(c2ccc3c(c2)[C@]2(COC(N)=N2)c2cc(-c4cncnc4)ccc2O3)CCO1", "note": "[compound 467]", "values": [
      {"measurement": "IC50", "setting": "BACE1 [1]", "value": "< 0.1", "unit": "µM"},
      {"measurement": "IC50", "setting": "BACE1 [2]; HEK cells", "value": "0.1 to 1", "unit": "µM"}
    ]},
    {"smiles": "NC1=N[C@]2(CO1)c1cc(OC3COC3)ccc1Oc1ccc(-c3cncnc3)cc12", "note": "[compound 776]", "values": [
      {"measurement": "IC50", "setting": "BACE1 [1]", "value": "0.1 to 1", "unit": "µM"},
      {"measurement": "IC50", "setting": "BACE1 [2]", "value": "0.1 to 1", "unit": "µM"}
    ]},
    {"smiles": "CC(C)(C)COc1ccc2c(n1)[C@@]1(COC(N)=N1)c1cc(Br)ccc1O2", "note": "[compound 736]", "values": [
      {"measurement": "IC50", "setting": "BACE1 [1]", "value": "1 to 5", "unit": "µM"},
      {"measurement": "IC50", "setting": "BACE1 [2]", "value": "> 5", "unit": "µM"}
    ]},
    {"smiles": "Cc1cncc(-c2ccc3c(c2)[C@@]2(COC(N)=N2)c2cc(N4CCOCC4)ncc2O3)c1", "note": "[compound 325]", "values": [
      {"measurement": "IC50", "setting": "BACE1 [1]; [3]", "value": "< 0.1", "unit": "µM"},
      {"measurement": "IC50", "setting": "BACE1 [2]; [4]", "value": "< 0.1", "unit": "µM"}
    ]},
    {"smiles": "NC1=N[C@]2(CO1)c1cc(-c3cccnc3)ccc1Oc1cnc(Cl)cc12", "note": "[compound 955]", "values": [
      {"measurement": "IC50", "setting": "BACE1 [1]", "value": "1 to 5", "unit": "µM"},
      {"measurement": "IC50", "setting": "BACE1 [2]", "value": "> 5", "unit": "µM"}
    ]},
    {"smiles": "CC(C)(C#N)COc1cnc2c(c1)[C@]1(COC(N)=N1)c1cc(-c3ccccc3F)ccc1O2", "note": "[compound 408]", "values": [
      {"measurement": "IC50", "setting": "BACE1 [1]; [3]", "value": "< 0.1", "unit": "µM"},
      {"measurement": "IC50", "setting": "BACE1 [2]; [4]", "value": "< 0.1", "unit": "µM"}
    ]},
    {"smiles": "CC(C)(C)COc1ccc2c(c1)[C@]1(COC(N)=N1)c1cc(-c3cccnc3)ncc1O2", "note": "[compound 750]", "values": [
      {"measurement": "IC50", "setting": "BACE1 [1]", "value": "< 0.1", "unit": "µM"},
      {"measurement": "IC50", "setting": "BACE1 [2]", "value": "0.1 to 1", "unit": "µM"}
    ]},
    {"smiles": "C[C@H]1OC(N)=N[C@]12c1cc(OCC(C)(C)C)ccc1Oc1ccc(-c3cncnc3)cc12", "note": "[126c]", "values": [
      {"measurement": "IC50", "setting": "BACE1 [1]; Table III, IC50's in uM ranges", "value": "0.1 to 1", "unit": "µM"},
      {"measurement": "IC50", "setting": "BACE1 [2]; Table III, IC50's in uM ranges", "value": "1 to 5", "unit": "µM"}
    ]}
  ]
}
